Measurements taken from article PMC4666306 (European journal of medicinal chemistry, 2015).

Legend:
[1] = tested on: BaF3 cells transformed with FLT3-ITD containing gatekeeper (F691L) mutation; conditions: 48 h post treatment
[2] = tested on: BaF3 cells transformed with FLT3-ITD containing activation loop (D835V) mutation; conditions: 48 h post treatment

Fc1ccc(-c2cnc3cc(-c4ccco4)ccn23)cc1 [Compound 21, 3-(4-Fluorophenyl)-7-(furan-2-yl)imidazo[1,2-a]pyridine]
GI50 +ITD F691L [1]: ineffective | GI50 +ITD D835V [2]: ineffective
